Measured values taken from US20100172854A1, “ANTIBACTERIAL FORMULATIONS” (priority 2007, published 2010).

Experiments:
[1] = tested on: acyl-CoA: cholesterol acyltransferase (ACAT); conditions: compound isolated from Aspergillus fumigatus, believed to be Antioxidant 2246; cited from earlier work
P. granulosum PPR-006 = test: Agar dilution MIC assay; type: cell-based, Propionibacterium granulosum; conditions: Propionibacterium, PPR006
Experimental: (§1) The propionibacteria were cultured and maintained on Wilkins-Chalgren Anaerobe Medium (agar and broth) at pH 6.0; all cultures were incubated anaerobically at 37° C. for 72 hours.
(§2) This is a standard international method for quantitatively assessing the antimicrobial activity of a compound in a solid medium. The test compound was prepared to 40× the highest concentration required (e.g. 10 mg/ml for a final concentration of 250 μg/ml) and a series of doubling dilutions were performed in a suitable solvent. A set amount of these antimicrobial stock solutions was then added to molten agar medium (ca. 55° C.), mixed thoroughly, poured into sterile Petri dishes and allowed to cool/set. The culture medium was as described above.
(§3) A Multipoint™ Inoculator (AQS Manufacturing Ltd, UK) was used to inoculate the plates by spotting the inocula onto the surface of the agar, delivering approximately 1 to 2 μl per spot (yielding 10^5 CFU (colony forming units) per spot).
The plate(s) were then incubated under the conditions described above, following which they were examined visually for signs of bacterial growth. The MIC value was ascertained when there was a marked reduction in, or total loss of, growth on the test plate at the lowest concentration as compared to that of the growth on the control plate. […]

P. acnes PRP-068 = test: Agar dilution MIC assay; type: cell-based, Propionibacterium acnes; conditions: Cutibacterium acnes, PRP068, resistance phenotype Ery
Experimental: as §1, §2, §3
The plate(s) were then incubated under the conditions described above, following which they were examined visually for signs of bacterial growth. The MIC value was ascertained when there was a marked reduction in, or total loss of, growth on the test plate at the lowest concentration as compared to that of the growth on the control plate.
The assays were conducted in triplicate and included a positive control (culture medium, diluting solvent and inoculum).

S. aureus CPHL EMRSA 15 = test: MBC assay; type: cell-based, Staphylococcus aureus; conditions: resistance phenotype Met/β-lactams
Experimental: (§4) The staphylococci were cultured and maintained on Mueller-Hinton Medium (agar and broth) at pH 7.2; cultures were incubated aerobically at 37° C. for 19-20 hours.
(§5) This assay, normally carried out after an MIC assay, determines the minimum concentration of a compound that is lethal to the micro-organism being tested.
(§6) These samples were then individually sub-cultured on antibiotic-free agar medium, under the incubation conditions described above. Following incubation they were examined visually for microbial growth.

S. aureus ATCC 12600-U = test: MBC assay; type: cell-based, Staphylococcus aureus
Experimental: as §4, §5, §6

S. aureus NCTC 12981 = test: MBC assay; type: cell-based, Staphylococcus aureus
Experimental: as §4, §5, §6

S. aureus ATCC 12604 = test: MBC assay; type: cell-based, Staphylococcus aureus
Experimental: as §4, §5, §6

S. aureus CPHL EMRSA 16 = test: MBC assay; type: cell-based, Staphylococcus aureus; conditions: resistance phenotype Met/β-lactams
Experimental: as §4, §5, §6

S. aureus ATCC 12605 = test: MBC assay; type: cell-based, Staphylococcus aureus
Experimental: as §4, §5, §6

S. aureus ATCC 12607 = test: MBC assay; type: cell-based, Staphylococcus aureus
Experimental: as §4, §5, §6

S. aureus ATCC 12601 = test: MBC assay; type: cell-based, Staphylococcus aureus
Experimental: as §4, §5, §6

S. aureus CPHL EMRSA 17 = test: MBC assay; type: cell-based, Staphylococcus aureus; conditions: resistance phenotype Met/β-lactams
Experimental: as §4, §5, §6

S. aureus CPHL VISA Mu50 = test: MBC assay; type: cell-based, Staphylococcus aureus; conditions: resistance phenotype Van (intermediate)
Experimental: as §4, §5, §6

S. aureus NCTC 12493 = test: MBC assay; type: cell-based, Staphylococcus aureus
Experimental: as §4, §5, §6

[2] = tested on: S. aureus CPHL GISA HO41340156; test: MBC assay; type: cell-based, Staphylococcus aureus; conditions: resistance phenotype Van/Tec (intermediate)
Experimental: as §4, §5, §6

S. aureus ATCC 12602 = test: MBC assay; type: cell-based, Staphylococcus aureus
Experimental: as §4, §5, §6

S. aureus ATCC 25923 = test: MBC assay; type: cell-based, Staphylococcus aureus
Experimental: as §4, §5, §6

S. aureus CPHL VISA Mu3 = test: MBC assay; type: cell-based, Staphylococcus aureus; conditions: resistance phenotype Van (intermediate)
Experimental: as §4, §5, §6

S. aureus ATCC 12606 = test: MBC assay; type: cell-based, Staphylococcus aureus
Experimental: as §4, §5, §6

[3] = tested on: Streptococcus mutans ATCC 25175; test: MIC assay; type: cell-based; conditions: ATCC25175
Experimental: (§7) The S. mutans strains were cultured and maintained on Wilkins-Chalgren Anaerobe Medium (agar and broth) at pH 7.0 supplemented with 1 g/L glucose; all cultures were incubated at 37° C. for 48 h in an atmosphere containing 5% CO2.
(§8) This is a standard international method for quantitatively assessing the antimicrobial activity of a compound in a liquid medium. The method used a sterile 96-well microtitre plate, capable of holding about 200 μl of liquid per well. The wells contained liquid culture medium and ranges of decreasing concentrations of the relevant test compound in doubling dilutions (e.g. 1000, 500, 250, 125 . . . μg/ml, etc. down to 0.49 μg/ml). The culture media were as described above.
(§9) The wells were inoculated with a liquid suspension of freshly grown micro-organism and incubated under the conditions described above. After incubation, the microtitre plate was examined visually (with the aid of a light box) for cloudiness in each well, which would indicate microbial growth. The MIC value was recorded as the lowest concentration of test compound required to inhibit microbial growth, i.e. the lowest concentration for which the liquid in the well remained clear.
(§10) The assays included both negative (culture medium with no micro-organisms) and positive (culture medium plus diluting solvent plus micro-organism) controls.

[4] = tested on: Streptococcus mutans ATCC 35668; test: MIC assay; type: cell-based; conditions: ATCC35668
Experimental: as §7, §8, §9, §10

Cc1cc(Cc2cc(C)cc(C(C)(C)C)c2O)c(O)c(C(C)(C)C)c1 [AO 2246, 2,2′-methylene-bis(4-methyl-6-tert-butylphenol)]
inhibitor: inhibitor of the enzyme ACAT [1]
3.9 µg/mL: MIC (P. acnes PRP-068) | MBC (S. aureus ATCC 12604; Staphylococcus aureus, ATCC12604) | MBC ([2]; Staphylococcus aureus) | MBC (S. aureus ATCC 12602; Staphylococcus aureus, ATCC12602) | MBC (S. aureus ATCC 12606; Staphylococcus aureus, ATCC12606)
15.6 µg/mL: MBC (S. aureus ATCC 12600-U; Staphylococcus aureus, ATCC12600) | MBC (S. aureus CPHL VISA Mu50; Staphylococcus aureus) | MIC [3]
7.8 µg/mL: MBC (S. aureus CPHL EMRSA 15; Staphylococcus aureus) | MBC (S. aureus NCTC 12981; Staphylococcus aureus, NCTC12981) | MBC (S. aureus CPHL EMRSA 16; Staphylococcus aureus) | MBC (S. aureus ATCC 12607; Staphylococcus aureus, ATCC12607) | MBC (S. aureus CPHL EMRSA 17; Staphylococcus aureus) | MBC (S. aureus ATCC 25923; Staphylococcus aureus, ATCC25923) | MBC (S. aureus CPHL VISA Mu3; Staphylococcus aureus) | MIC [4]
1: MIC/MBC Ratio (S. aureus ATCC 12605) | MIC/MBC Ratio (S. aureus ATCC 12601) | MIC/MBC Ratio (S. aureus ATCC 25923)
1.95 µg/mL: MIC (P. granulosum PPR-006) | MBC (S. aureus ATCC 12605; Staphylococcus aureus, ATCC12605) | MBC (S. aureus ATCC 12601; Staphylococcus aureus, ATCC12601) | MBC (S. aureus NCTC 12493; Staphylococcus aureus, NCTC12493)
0.5: MIC/MBC Ratio (S. aureus ATCC 12604) | MIC/MBC Ratio (S. aureus NCTC 12493; S. aureus NCTC 12493, resistance phenotype Met) | MIC/MBC Ratio [2] | MIC/MBC Ratio (S. aureus ATCC 12602) | MIC/MBC Ratio (S. aureus ATCC 12606)
0.06: MIC/MBC Ratio (S. aureus ATCC 12600-U) | MIC/MBC Ratio (S. aureus CPHL VISA Mu50)
0.25: MIC/MBC Ratio (S. aureus CPHL EMRSA 15) | MIC/MBC Ratio (S. aureus NCTC 12981) | MIC/MBC Ratio (S. aureus CPHL EMRSA 16) | MIC/MBC Ratio (S. aureus ATCC 12607) | MIC/MBC Ratio (S. aureus CPHL EMRSA 17) | MIC/MBC Ratio (S. aureus CPHL VISA Mu3)
